# Reference: patent US10723711B2, “1,1,1-trifluoro-3-hydroxypropan-2-yl carbamate derivatives and 1,1,1-trifluoro-4-hydroxybutan-2-yl carbamate derivatives as MAGL inhibitors” (PFIZER INC., priority 2015, dated 2020)
# Like-named read-outs stand apart in the source and are kept apart here.
# Key:
# Format in all cases: biochemical
# [1] = target: T1, human recombinant Monoacylglycerol Lipase (Homo sapiens, UniProt Q99685); assay: MAGL inactivation, enzyme progress curves, kinact/KI; settings: from enzyme progress curves, T = 0 min protocol; geometric mean of 2-4 determinations unless otherwise indicated
# T1 sequence (Q99685 1-303): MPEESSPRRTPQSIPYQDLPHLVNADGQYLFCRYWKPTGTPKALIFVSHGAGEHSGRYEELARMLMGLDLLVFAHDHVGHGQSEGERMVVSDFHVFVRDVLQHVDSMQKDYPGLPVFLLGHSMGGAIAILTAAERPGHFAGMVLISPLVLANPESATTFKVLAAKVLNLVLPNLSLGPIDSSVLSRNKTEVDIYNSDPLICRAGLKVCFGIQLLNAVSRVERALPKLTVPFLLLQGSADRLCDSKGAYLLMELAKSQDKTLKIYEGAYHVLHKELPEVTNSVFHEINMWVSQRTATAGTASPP
# Summary of the method: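 Human recombinant MAGL ([…]) with compound, 7-HCA substrate (final 5 μM) added immediately (T=0 min), in pH 7.4 HEPES buffer with 0.1% Triton X-100 and 25% glycerin. Fluorescence (Ex/Em 340/465) was read every minute over 60 min, giving progress curves at decreasing compound concentrations (final 3 μM to 0.03 nM).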
# [2] = target: T1, human recombinant Monoacylglycerol Lipase; assay: MAGL inhibition enzymatic assay, fluorogenic substrate 7-HCA, IC50 at T=0 min or after 30 minute incubation (T=30 min); settings: geometric mean of 2-4 determinations unless otherwise indicated
# Protocol: An equal volume of 7-HCA in assay buffer with 10% DMSO was added either immediately (T=0 min) or after a 30 minute incubation (T=30 min) to initiate the reaction. […] After these dilutions, the final concentration of the test compound ranged from 3 μM to 0.03 nM. […] IC50 values were generated based on a four parameter fit model using ABASE software from IDBS.
# human recombinant FAAH = target: T2, human recombinant FAAH (Homo sapiens, UniProt O00519); assay: FAAH inhibition enzymatic assay, fluorescent substrate Arachidonoyl-AMC, 30 minute incubation; settings: T = 30 min (30 minute incubation); geometric mean of 2-4 determinations unless otherwise indicated
# T2 construct: purchased Cayman 10010183
# T2 sequence (O00519 1-579): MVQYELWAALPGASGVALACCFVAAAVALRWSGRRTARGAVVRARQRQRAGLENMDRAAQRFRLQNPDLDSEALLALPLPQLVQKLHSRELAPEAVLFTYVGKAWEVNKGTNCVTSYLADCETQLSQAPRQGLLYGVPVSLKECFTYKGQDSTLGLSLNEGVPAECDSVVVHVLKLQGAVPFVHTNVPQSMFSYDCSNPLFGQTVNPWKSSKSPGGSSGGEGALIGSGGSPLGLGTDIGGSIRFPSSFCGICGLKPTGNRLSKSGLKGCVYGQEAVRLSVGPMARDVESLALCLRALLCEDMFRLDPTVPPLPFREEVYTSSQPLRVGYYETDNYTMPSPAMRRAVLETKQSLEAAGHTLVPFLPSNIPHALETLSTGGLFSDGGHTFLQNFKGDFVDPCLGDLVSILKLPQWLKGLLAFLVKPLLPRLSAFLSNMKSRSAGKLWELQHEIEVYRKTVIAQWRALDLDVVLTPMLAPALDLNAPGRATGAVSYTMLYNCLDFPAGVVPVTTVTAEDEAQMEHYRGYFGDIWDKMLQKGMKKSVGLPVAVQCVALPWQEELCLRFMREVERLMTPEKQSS
# [3] = T = 0 min (substrate added immediately), read-out: MAGL (T = 0 min) IC50
# [4] = T = 30 min (30 minute incubation), read-out: MAGL (T = 30 min) IC50
MAGL kinact/KI [1],"IC50 [2, 3]","IC50 [2, 4]",IC50 (human recombinant FAAH),Compound
3519 1/s per M,77 nM,7 nM,> 30000 nM,CN(C(=O)c1cccc(F)c1)[C@H]1COC2(CCN(C(=O)O[C@H](CO)C(F)(F)F)CC2)C1 [Example 141]
3961 1/s per M,84 nM,9 nM,> 30000 nM,CN(C(=O)C1CCC1)[C@H]1COC2(CCN(C(=O)O[C@H](CO)C(F)(F)F)CC2)C1 [Example 142]
2585 1/s per M,96 nM,10 nM,> 30000 nM,CN(C(=O)CC1CCC1)[C@H]1COC2(CCN(C(=O)O[C@H](CO)C(F)(F)F)CC2)C1 [Example 143]
2802 1/s per M,105 nM,10 nM,> 30000 nM,CC(C)CC(=O)N(C)[C@H]1COC2(CCN(C(=O)O[C@H](CO)C(F)(F)F)CC2)C1 [Example 144]
1476 1/s per M,198 nM,19 nM,> 30000 nM,CN(C(=O)CC1CC1)[C@H]1COC2(CCN(C(=O)O[C@H](CO)C(F)(F)F)CC2)C1 [Example 145]
